Data published in patent US5618713A, “Mutants of human antithrombin III” (Behringwerke Aktiengesellschaft, priority 1989, dated 1997).

Assays:
Assay type in all cases: biochemical
alpha-thrombin (human) = test: dependence of thrombin inactivation on the heparin concentration
Experimental: The two mutants were examined for their relative ability to inactivate thrombin as a function of the heparin concentration in the assay and compared with AT III plasma, AT III-WT and the mutant AT III-Lys49 (Tab. 5).
The assay was carried out under the following conditions: 0.02 U (antigen)/ml AT III (AT III plasma, AT III-WT or AT III-Mut) was preincubated with 0.3 IU/ml alpha-thrombin (human), 2 KIU/ml aprotinin (Behringwerke) and heparin (Hoffmann-LaRoche) in concentrations of 0-25 IU/ml in a volume of I ml at 37° C. for 5minutes. After addition of 100 μl of substrate reagent (2 mM HD-CHA-But-Arg-pNA), the change in extinction at 405 nm (37° C.) was followed kinetically. The maximum inhibition of alpha-thrombin at heparin saturation was set equal to 100%.
Tab. 5 indicates the heparin concentration at half-maximum thrombin inhibition (c 1/2) for AT III plasma, AT III-WT and various AT III mutants.

bovine thrombin = test: progressive inhibitory activity (Hensen et al. 1963), rate of thrombin inactivation, clotting time; details: purified protein, without heparin
Experimental: As taught in Hensen et al., progressive inhibiting activity is measured by an antithrombin III assay according to the principle that the material to be tested is incubated with thrombin. The rate of thrombin inactivation is measured and is used as a standard of antithrombin III activity.
In the procedure, a bovine thrombin solution of 50 N.I.H. units/ml, stored at-25° C., after being thawed is kept as melting ice; 0.2 ml of this thrombin solution with 0.6 ml veronal buffer, in a siliconized tube, is placed in a waterbath at 37° C. After a minimum of 2 minutes preheating, 0.2 ml of the material to tested (heat-defibrinated plasma or serum or a plasma fraction) is added to the mixture, and a chronometer is started. Exactly 1, 3 and 5 minutes later, 0.2 ml of this incubation mixture is added to 0.3 ml diluted bovine BaSO4 -plasma which has been pre-heated in the waterbath for 2-20 minutes and kept in non-siliconized tubes. The clotting times obtained are registered. The determination is made in duplicate.
If the antithrombin III activity in the sample tested is found to be low (less than 50% of the normal), then the determination should be repeated with the double quantity of the material to be tested (0.4 ml and 0.4 ml veronal buffer).
In the calculation, three times are obtained per determination. […]

thrombin = test: heparin cofactor activity (Schrader et al. 1986), Berichrom test kit, excess heparin and thrombin; details: purified protein, excess of heparin and thrombin
Experimental: As taught in Schrader et al., for the determination of the heparin cofactor activity of the AT III mutants with the test kit Berichrom® (Behringwerke AG, Marburg) a solution with the particular AT III mutant was incubated with an excess of heparin and thrombin. The produced AT III mutant-heparin-complex inhibits a part of the thrombin. The non-inactivated part of the thrombin cleaves the chromogenic substrate which was added to the solution and the amount of produced p-nitroaniline was measured at 405 nm photometrically.

[1] = target: elastase from human polymorphonuclear granulocytes (PMN elastase); test: PMN elastase inhibition assay (chromogenic substrate MeO-Suc-Ala-Ala-Pro-Val-pNA)
Experimental: The liberation of the paranitroaniline from the substrate was measured in a spectrophotometer as the increase in absorption at 405 nm within 15 min. This absorption was defined as 100% activity of the PMN elastase enzyme. The inhibitors were preincubated in concentrations increasing up to a maximum of 100 μg/ml with the enzyme for one hour. The enzyme reaction was then started with the substrate. The assay was carried out in 0.1 mol/1 HEPES, pH 7.5, +0.1 mol/1 sodium chloride. The substrate concentration was 0.13 mmol/1.

ATIII-Gln135: AT III mutant with Asn→Gln exchange in position 135, lacking a carbohydrate side-chain
C 1/2 Heparin, heparin concentration at half-maximum relative thrombin inhibition (alpha-thrombin (human); 0.02 U/ml AT III, 0.3 IU/ml alpha-thrombin, heparin 0-25 IU/ml, 5 min 37° C.): 22 mIU/ml
inhibition of thrombin at low heparin concentrations (alpha-thrombin (human); compared in words): better than that of AT III plasma and AT III-WT
PI, progressive inhibitory activity (bovine thrombin): 3.9 U/mg
HC, heparin cofactor activity (thrombin): 4.5 U/mg

alpha1 PI: reference inhibitor alpha1 protease inhibitor (alpha1 antitrypsin)
IC50, inhibition of PMN elastase ([1]; 1 h preincubation with enzyme, substrate 0.13 mmol/l, 0.1 mol/l HEPES pH 7.5 + 0.1 mol/l NaCl, max. 100 μg/ml): 3.7 µg/mL
type of inhibition of PMN elastase ([1]; KI determination): non-competitive inhibition
